This note sets out measurements from article PMC5787524, “Discovery of a FLT3 inhibitor LDD1937 as an anti-leukemic agent for acute myeloid leukemia” (Oncotarget, 2017).

For one test, the target named is T1, IRAK4 (Homo sapiens, UniProt Q9NWZ3).
T1 sequence (Q9NWZ3 1-460): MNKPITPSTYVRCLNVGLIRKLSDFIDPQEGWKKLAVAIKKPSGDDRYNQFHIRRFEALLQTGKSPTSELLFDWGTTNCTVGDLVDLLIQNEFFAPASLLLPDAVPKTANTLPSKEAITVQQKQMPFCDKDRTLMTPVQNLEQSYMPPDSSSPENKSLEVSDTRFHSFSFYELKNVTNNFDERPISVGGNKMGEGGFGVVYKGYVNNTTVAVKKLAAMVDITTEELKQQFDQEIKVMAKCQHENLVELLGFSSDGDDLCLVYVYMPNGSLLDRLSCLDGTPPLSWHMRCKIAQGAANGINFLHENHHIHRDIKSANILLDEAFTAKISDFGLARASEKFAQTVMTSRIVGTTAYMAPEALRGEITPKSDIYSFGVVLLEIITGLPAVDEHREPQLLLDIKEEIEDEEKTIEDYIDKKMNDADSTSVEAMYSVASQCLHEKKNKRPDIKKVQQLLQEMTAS
Put plainly: In vitro IRAK4 kinase assay (LANCE Ultra). Format: biochemical. On the procedure: The in vitro kinase assay for IRAK4 was done with the LANCE Ultra Kinase Activity Assay (Perkin Elmer) containing the ULight-p70S6K (Thr389) peptide (phosphorylation motif […]). The assays consisted of the enzyme mixed with serially diluted compounds, 50 nM ULight-p70S6K (Thr389) peptide, and 500 μM ATP prediluted in kinase buffer (50 mM HEPES (pH 7.5), 10 mM MgCl2, 1 mM EGTA, 2 mM DTT, and 0.01% Tween20). Ten microliters of the total volume of the kinase reaction were added to the wells of a 96-well assay plate. The kinase reactions were incubated for 90 min. at 25°C and stopped by the addition of 10 mM EDTA. For the detection of the phospho-substrate, the Eu-anti-phospho-p70S6K (Thr389) antibody diluted in detection buffer was added to a final concentration of 2 nM, and the reactions were then incubated for 1 h at 25°C. The signal was measured on an EnVision multi-label reader.

Another test relates to MV-4-11 cells. As to the kind of experiment: Cell cycle analysis by PI flow cytometry. Format: cell-based, human. The settings on record: 24 h. On the procedure:
For cell cycle analysis, cells were seeded in a 10 cm plate (2 × 10^6 cells per well) and treated with the LDD1937 compound. Then, the cells were fixed with ethanol and treated with RNase A (4 mg/mL) and stained with propidium iodide (PI) (Sigma Co). Cell cycle distribution was analyzed by flow cytometry with an Accuri C6 flow cytometer.

The test system of test [1] is PARP cleavage in MV-4-11 cells. Put plainly: PARP cleavage western blot. Particulars: MV-4-11, 24 h. Format: cell-based, human. On the procedure:
(§1) Cells were lysed in SDS Lysis buffer (12 mM Tris-Cl, pH 6.8, 5% glycerol, and 0.4% SDS), and the protein concentrations were measured with the SMART BCA Protein Assay kit (iNtRON Biotechnology, Korea). The proteins were resolved with SDS-polyacrylamide gel electrophoresis followed by transfer to PVDF membranes (Millipore, Billerica, MA, USA) and incubated overnight with the appropriate antibodies. The antibodies used were as follows: phospho-STAT5 (p-STAT5; rabbit polyclonal IgG; #9351, 1:1,000), cyclin D1 (rabbit polyclonal IgG; #2922, 1:1,000), and PARP (rabbit polyclonal IgG; #9542, 1:1,000) from Cell Signaling Technology (Danver, MA, USA), STAT5 (rabbit polyclonal IgG; #sc-835, 1:1,000) from Santa Cruz (Santa Cruz, CA, USA), and β-actin (mouse monoclonal IgG; # A5441, 1:5000) from Sigma-Aldrich. Goat anti-rabbit IgG (#111-035-003; 1;5,000) and anti-mouse IgG (#115-035-033; 1:5,000) secondary antibodies were obtained from Jackson ImmunoResearch Laboratories, Inc. (West Grove, PA, USA).

In test [2] the test system is phosphorylated STAT5 in MV-4-11 cells. As to the kind of experiment: STAT5 phosphorylation western blot. Format: cell-based, human. Particulars: MV-4-11, 4 h. On the procedure:
as §1

On IRAK4, `COC(=O)c1ccc2c(c1)/C(=C1/Nc3ccccc3/C1=N\OCCN1CCNCC1)C(=O)N2.Cl.Cl` [LDD1937, methyl (2Z,3E)-2′-oxo-3-((2-(piperazin-1-yl)ethoxy)imino)-[2,3′-biindolinylidene]-5′-carboxylate dihydrochloride] registered an IC50 of 300 nM. Also, the “G0/G1 Percent” value with MV-4-11 cells (10 nM) stood at 54.4%. Further, in the test on MV-4-11 cells (100 nM), the “Sub-G1 Percent” value is on record as 31.3%. The “cleaved PARP” value in test [1] (1 nM) is recorded as “an increase in the cleaved PARP was detected”. In test [1] (western blot), the PARP cleavage result was “induced PARP cleavage in a dose-dependent manner”. In test [2] (1 nM), the “phosphorylated STAT5” value was “a reduction in the phosphorylated STAT5 was observed”. Also, in test [2] (0.1 µM), the phospho-STAT5 band entry was “completely disappeared”.
